PMC9692424, “In Vitro Screening for Anti-Acetylcholinesterase and Antioxidant Activities of Hottonia palustris L. Extracts and Their Unusual Flavonoids” (Molecules, 2022)
Like-named read-outs stand apart in the source and are kept apart here.

Legend:
[1] = Cupric ion reducing method (CUPRAC); settings: compounds 1–19; Trolox equivalents; mean ± SD, triplicate; na = no significant activity
Protocol: The total antioxidant capacity was determined using an Antioxidant Assay Kit MAK334. In short, 20 µL of each fraction or compound solution was added to 100 µL of the Reaction Mix in the clear, flat-bottomed 96-well plate. The absorbance was measured at 570 nm after 10 min of incubation at room temperature. The results were determined using a standard curve evaluated for Trolox.

[2] = target: acetylcholinesterase (AChE) (Homo sapiens, UniProt P22303); test: biochemical
Protocol: Acetylcholinesterase inhibition was determined according to the previously described method [34] with a slight modification. The assay was carried out in Tris-HCl buffer (pH = 8 at 25 °C). The test extracts or compounds were diluted in the same buffer to the appropriate concentrations. Firstly, the reaction mixture containing the sample solution (50 µL), AChE solution (25 µL, 0.25 U/mL), and Ellman’s Reagent (3 mM, 125 µL) was incubated for 15 min at room temperature. Subsequently, 25 µL of ACh iodide (15 mM) was added, and after a further quarter-hour of incubation, the absorbance was estimated at 405 nm. The blank well contained the same amount of Tris-HCl buffer instead of the sample solution. […] All measurements were conducted in triplicate, and the values are presented as IC50 means with standard deviations (SDs). The percent inhibition was calculated using the following formula:Enzyme inhibition activity (%) = (B − S)/B × 100% where B is the blank, and S is the sample absorbance.

[3] = Free radical scavenging activity (DPPH assay); settings: compounds 1–19; Trolox equivalents; mean ± SD, triplicate
Protocol: The methanolic solutions of fractions or compounds (130 µL) were added to the DPPH solution (70 µL). The sample’s absorbance was recorded after 30 min of incubation in darkness. All tests were performed in triplicate [33]. The radical scavenging activity of the tested samples was calculated using an equation obtained through linear regression of the Trolox standard curve. The methanolic solutions of fractions or compounds (130 µL) were added to the DPPH solution (70 µL). The sample absorbance was recorded after 30 min of incubation in darkness. All tests were performed in triplicate [33]. The radical scavenging activity of the tested samples was calculated using the equation obtained through linear regression of the Trolox standard curve.

[4] = ABTS radical cation scavenging activity (Antioxidant Assay Kit); settings: compounds 1–19; Trolox equivalents; mean ± SD, triplicate
Protocol: The potential inhibition of the production of the radical cation was measured using an Antioxidant Assay Kit. In short, the mixed solution, including 10 µL of the test sample, 20 µL of the myoglobin working solution, and 150 µL of the ABTS working solution, was incubated for 5 min. Then, 100 µL of the stop solution was added, and the absorbance was measured at 405 nm. All tests were performed in triplicate. The results were expressed as µM of Trolox equivalents obtained from the standard curve.

[5] = Ferric-reducing antioxidant power method (FRAP); settings: compounds 1–19; ferrous ion equivalents; mean ± SD, triplicate; na = no significant activity
Protocol: The ferric-reducing power was measured using the Ferric-Reducing Antioxidant Power Assay Kit. In brief, 10 µL of the tested solution was added to 190 µL of the reaction solutions (containing FRAP Assay Buffer, FeCl3 solution, and FRAP Probe). All of the absorbance values were recorded at 594 nm after 1 h of incubation at 37 °C. The chelating activity was determined using a standard curve and evaluated as mM of ferrous ion equivalents. All tests were performed in triplicate.

[6] = compounds 1–19, mean ± SD, at least triplicate, read-out: AChE IC50

Sequence of acetylcholinesterase (AChE) (P22303 32-614): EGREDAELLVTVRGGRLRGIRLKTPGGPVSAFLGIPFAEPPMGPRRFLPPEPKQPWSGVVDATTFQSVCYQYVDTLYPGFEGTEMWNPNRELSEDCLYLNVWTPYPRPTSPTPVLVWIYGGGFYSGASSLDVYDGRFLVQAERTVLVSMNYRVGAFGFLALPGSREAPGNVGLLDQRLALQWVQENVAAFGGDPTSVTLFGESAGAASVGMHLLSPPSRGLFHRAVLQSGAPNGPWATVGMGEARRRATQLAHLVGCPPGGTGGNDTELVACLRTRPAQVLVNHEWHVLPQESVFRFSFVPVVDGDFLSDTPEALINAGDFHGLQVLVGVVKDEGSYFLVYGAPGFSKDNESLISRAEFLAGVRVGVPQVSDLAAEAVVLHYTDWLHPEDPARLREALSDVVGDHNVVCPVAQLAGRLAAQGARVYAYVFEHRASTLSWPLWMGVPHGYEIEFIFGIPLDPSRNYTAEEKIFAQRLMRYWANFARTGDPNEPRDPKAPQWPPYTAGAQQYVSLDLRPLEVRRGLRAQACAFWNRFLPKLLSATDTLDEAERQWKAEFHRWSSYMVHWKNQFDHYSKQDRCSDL

SMILES | CUPRAC [1] | IC50 [2, 6] | DPPH [3] | ABTS [4] | FRAP [5] | IC50 [2]
O=c1cc(-c2ccccc2O[C@@H]2O[C@H](CO)[C@@H](O)[C@H](O)[C@H]2O)oc2cccc(O)c12 [Compound 9, 5,2′-dihydroxyflavone 2′-O-β-glucopyranoside] | 20.33 ± 1.57 µM Teq | 399.7 ± 0.64 µM | 170.56 ± 2.49 µM Teq | 204.59 ± 2.26 µM Teq | – | –
O=c1c(OC2OC(COC3OCC(O)C(O)C3O)C(O)C(O)C2O)c(-c2ccc(O)c(O)c2)oc2cc(O)cc(O)c12 (stereo not drawn) [Compound 18, quercetin 3-O-(6″-O-β-xylopyranosyl)-β-glucopyranoside] | 1401.11 ± 2.64 µM Teq | 303 ± 3.33 µM | 1336.75 ± 6.33 µM Teq | 1147.52 ± 7.06 µM Teq | 63.98 ± 1.75 mM Fe^2+/mL | –
COc1ccc(OC)c(-c2cc(=O)c3c(O)cccc3o2)c1OC [Compound 5, 5-hydroxy-2’,3’,6’-trimethoxyflavone] | – | 284.6 ± 0.8 µM | 34.32 ± 0.97 µM Teq | 280.02 ± 1.55 µM Teq | – | –
O=c1c(OC2OC(COC3OCC(O)C(O)C3O)C(O)C(O)C2O)c(-c2ccc(O)cc2)oc2cc(O)cc(O)c12 (stereo not drawn) [Compound 16, kaempferol-3-O-(6″-O-β-xylopyranosyl)-β-glucopyranoside] | 74.40 ± 1.49 µM Teq | 364.3 ± 1.79 µM | 300.29 ± 1.87 µM Teq | 717.32 ± 3.47 µM Teq | 0.67 ± 0.06 mM Fe^2+/mL | –
O=C(CC(=O)c1ccccc1)c1ccccc1 [Compound 1, 1,3-diphenylpropane-1,3-dione] | 3.18 ± 0.32 µM Teq | 144.8 ± 1.3 µM | 39.81 ± 2.76 µM Teq | 300.12 ± 4.97 µM Teq | – | –
COc1cccc(OC)c1-c1cc(=O)c2c(O)cccc2o1 [Compound 4, 5-hydroxy-2’,6’-dimethoxyflavone] | – | 325.4 ± 3.21 µM | 28.63 ± 2.40 µM Teq | 326.76 ± 6.64 µM Teq | – | –
COc1ccccc1-c1cc(=O)c2c(O)cccc2o1 [Compound 3, 5-hydroxy-2′-methoxyflavone] | – | 279.7 ± 0.45 µM | 39.39 ± 1.59 µM Teq | 330.59 ± 4.04 µM Teq | – | –
O=c1cc(-c2ccccc2O)oc2cccc(O)c12 [Compound 11, 5,2′-dihydroxyflavone] | 44.50 ± 1.35 µM Teq | 371.5 ± 0.66 µM | 175.83 ± 2.83 µM Teq | 661.30 ± 3.81 µM Teq | 0.07 ± 0.01 mM Fe^2+/mL | –
COc1ccc(O)c(-c2cc(=O)c3c(O)cccc3o2)c1OC [Compound 7, 5,6′-dihydroxy-2′,3′-dimethoxyflavone] | – | 390.8 ± 0.66 µM | 37.85 ± 1.90 µM Teq | 277.56 ± 2.88 µM Teq | – | –
O=c1cc(-c2ccccc2)oc2cccc(O)c12 [Compound 2, 5-hydroxyflavone] | – | 314.4 ± 1.72 µM | 41.71 ± 2.28 µM Teq | 317.47 ± 3.91 µM Teq | – | –
O=c1cc(-c2ccccc2)oc2ccc(O)c(O)c12 [Compound 12, 5,6-dihydroxyflavone] | 1060.42 ± 5.33 µM Teq | 362.2 ± 0.39 µM | 1522.38 ± 7.31 µM Teq | 1052.41 ± 5.51 µM Teq | 54.25 ± 1.03 mM Fe^2+/mL | –
C[C@@H]1O[C@@H](OC[C@H]2O[C@@H](Oc3c(-c4ccc(O)c(O)c4)oc4cc(O)cc(O)c4c3=O)[C@H](O)[C@@H](O)[C@@H]2O)[C@H](O)[C@H](O)[C@H]1O [Compound 19, quercetin 3-O-(6″-O-α-rhamnopyranosyl)-β-glucopyranoside] | 1258.68 ± 3.49 µM Teq | – | 1467.53 ± 5.48 µM Teq | 1149.16 ± 5.25 µM Teq | 52.98 ± 1.35 mM Fe^2+/mL | 445.32 ± 0.35 µM
O=c1c(O)c(-c2ccc(O)cc2)oc2cc(O)cc(O)c12 [Compound 17, kaempferol] | 848.64 ± 3.49 µM Teq | – | 792.53 ± 7.31 µM Teq | 1095.04 ± 1.85 µM Teq | 36.87 ± 1.20 mM Fe^2+/mL | 276.9 ± 1.41 µM
O=c1cc(-c2ccccc2)oc2cc(O)cc(O)c12 [Compound 13, 5,7-dihydroxyflavone] | – | 330.1 ± 1.77 µM | 227.51 ± 1.83 µM Teq | 728.26 ± 1.08 µM Teq | 0.08 ± 0.01 mM Fe^2+/mL | –
O=c1cc(-c2ccccc2)oc2ccc(OC3OC(COC4OC(CO)C(O)C(O)C4O)C(O)C(O)C3O)c(O)c12 (stereo not drawn) [Compound 10, 5,6-dihydroxyflavone 6-O-(6″-O-glucopyranosyl)-β-glucopyranoside] | 19.79 ± 1.03 µM Teq | 376.1 ± 1.87 µM | 204.31 ± 3.31 µM Teq | 624.94 ± 5.70 µM Teq | – | –
CC1OC(OCC2OC(Oc3c(-c4ccc(O)cc4)oc4cc(O)cc(O)c4c3=O)C(O)C(O)C2O)C(O)C(O)C1O (stereo not drawn) [Compound 15, kaempferol 3-O-(6″-O-α-rhamnopyranosyl)-β-glucopyranoside] | 56.81 ± 1.52 µM Teq | 407.4 ± 1.41 µM | 250.72 ± 1.65 µM Teq | 702.29 ± 2.47 µM Teq | 0.40 ± 0.06 mM Fe^2+/mL | –
COc1ccc2oc(-c3ccccc3O)cc(=O)c2c1O [Compound 6, 2’,5-dihydroxy-6-methoxyflavone] | 366.29 ± 1.24 µM Teq | 391.8 ± 1.06 µM | 227.55 ± 2.85 µM Teq | 781.28 ± 4.38 µM Teq | 15.81 ± 0.85 mM Fe^2+/mL | –
